Where a name gives a salt, the structure may show the parent alone. Read-outs that look alike come from different tables or passages of the source.

Here are results for 32 compounds from patent US20130190407A1, “CALCIUM RECEPTOR-ACTIVE MOLECULES” (NPS Pharmaceuticals, Inc., priority 1991, published 2013).

Experiment [1] addresses T1, parathyroid cell calcium receptor (Bos taurus, UniProt P35384).
T1 sequence (P35384 20-1085): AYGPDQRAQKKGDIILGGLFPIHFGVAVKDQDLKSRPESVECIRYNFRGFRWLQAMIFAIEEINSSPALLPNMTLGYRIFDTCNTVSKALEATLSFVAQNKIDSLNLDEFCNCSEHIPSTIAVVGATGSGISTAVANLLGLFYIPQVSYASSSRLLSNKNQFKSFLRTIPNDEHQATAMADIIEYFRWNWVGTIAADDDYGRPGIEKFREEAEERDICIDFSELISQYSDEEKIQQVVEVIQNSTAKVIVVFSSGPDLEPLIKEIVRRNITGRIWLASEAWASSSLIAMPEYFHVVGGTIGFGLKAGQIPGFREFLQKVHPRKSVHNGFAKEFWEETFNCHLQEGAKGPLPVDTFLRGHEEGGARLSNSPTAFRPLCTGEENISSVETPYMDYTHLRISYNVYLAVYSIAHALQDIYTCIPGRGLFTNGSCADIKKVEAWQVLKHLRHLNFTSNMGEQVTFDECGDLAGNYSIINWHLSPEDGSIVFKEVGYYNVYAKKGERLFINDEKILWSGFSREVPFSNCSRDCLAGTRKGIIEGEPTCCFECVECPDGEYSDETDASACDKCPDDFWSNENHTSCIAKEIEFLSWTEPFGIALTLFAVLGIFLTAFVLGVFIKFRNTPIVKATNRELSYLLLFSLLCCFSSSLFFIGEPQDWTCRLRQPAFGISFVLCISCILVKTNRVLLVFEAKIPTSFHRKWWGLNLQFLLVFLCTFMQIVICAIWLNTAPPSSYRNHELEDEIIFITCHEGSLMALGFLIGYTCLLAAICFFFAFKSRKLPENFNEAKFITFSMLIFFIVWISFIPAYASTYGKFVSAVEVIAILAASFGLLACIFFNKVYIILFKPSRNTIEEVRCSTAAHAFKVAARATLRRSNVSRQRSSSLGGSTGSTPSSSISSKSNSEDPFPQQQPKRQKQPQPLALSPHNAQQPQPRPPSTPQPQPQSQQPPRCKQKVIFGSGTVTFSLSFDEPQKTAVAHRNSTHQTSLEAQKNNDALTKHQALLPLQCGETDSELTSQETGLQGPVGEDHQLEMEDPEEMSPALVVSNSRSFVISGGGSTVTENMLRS
Nature of the experiment: Mobilization of intracellular Ca2+ ([Ca2+]i, fura-2) in bovine parathyroid cells. It is filed as cell-based. Further details: Parathyroid glands were obtained from freshly slaughtered calves (12-15 weeks old); endogenous in cells; host or cells: dissociated primary bovine (calf) parathyroid cells. The following applies: for influx of extracellular Ca2+ / potentiation of Ca2+ mobilization / transient increases in [Ca2+]i: verapamil, D-600, TMB-8 100 μM, NPS 384 300 μM; for compounds with any effect on basal [Ca2+]i or increases evoked by extracellular Ca2+: tested at 1 μM.
Procedure: This section describes procedures used to obtain and treat parathyroid cells from calves and humans. […] Human parathyroid glands, were obtained from patients undergoing surgical removal of parathyroid tissue for primary or uremic hyperparathyroidism (uremic HPT), and were treated similarly to bovine tissue.
Glands were trimmed of excess fat and connective tissue and then minced with fine scissors into cubes approximately 2-3 mm on a side. Dissociated parathyroid cells were prepared by collagenase digestion and then purified by centrifugation in Percoll buffer. The resultant parathyroid cell preparation was essentially devoid of red blood cells, adipocytes, and capillary tissue as assessed by phase contrast microscopy and Sudan black B staining. Dissociated and purified parathyroid cells were present as small clusters containing 5 to 20 cells.
The cells were then pelleted, resuspended in the same buffer, but lacking the ester, and incubated a further 15 minutes at 37° C. The cells were subsequently washed twice with PCB containing 0.5 mM CaCl2 and 0.5% BSA and maintained at room temperature (about 20° C.) Immediately before use, the cells were diluted five-fold with prewarmed 0.5 mM CaCl2-PCB to obtain a final BSA concentration of 0.1%. The concentration of cells in the cuvette used for fluorescence recording was 1−2×10^6/ml.
The fluorescence of indicator-loaded cells was measured at 37° C. in a spectrofluorimeter (Biomedical Instrumentation Group, University of Pennsylvania, Philadelphia, Pa.) equipped with a thermostated cuvette holder and magnetic stirrer using excitation and emission wavelengths of 340 and 510 nm, respectively. […] Leakage of dye is dependent on temperature and most occurs within the first 2 minutes after warming the cells in the cuvette. Dye leakage increases only very slowly thereafter. To correct the calibration for dye leakage, cells were placed in the cuvette and stirred at 37° C. for 2-3 minutes. The cell suspension was then removed, the cells pelleted, and the supernatant returned to a clean cuvette. […] This estimate was subtracted from the apparent Fmin.

For experiment [2], the target named is bovine parathyroid cell calcium receptor (bovine) (UniProt P35384). Nature of the experiment: cell-based or functional assay.
Experiment [3] relates to Sprague-Dawley rats. Nature of the experiment: Serum/plasma Ca2+, PTH and calcitonin in rats in vivo. More on the design: species or system rat. The following applies: i.p. On the procedure: Compounds shown to activate the bovine parathyroid cell calcium receptor in vitro were tested for hypocalcemic activity in vivo. Male Sprague-Dawley rats (200 g) were maintained on a low calcium diet for one week prior to receiving test substance or vehicle as control. Blood was collected from the tail vein three hours after the intra-peritoneal administration of NPS 467. […] Serum total calcium, albumin and phosphate were measured by techniques well known in the art.
Rats (male, Sprague-Dawley, 250-300 g) were fed standard rat chow and fasted overnight prior to the experiment. NPS R-467 was suspended in corn oil, and administered as a single oral dose through a gavage needle. Three hours later a sample of blood was taken from the tail vein and assessed for ionized Ca^2+ levels.

Where [4] appears, read: EC50 for mobilization of intracellular Ca2+, bovine parathyroid cells.
[5] abbreviates: Table 8 (arylalkylamine calcimimetics), parathyroid cell calcium receptor in vitro, read-out: EC50.
The mark [6] stands for this setting: 100 to 1000 μM, buffer containing 2 mM CaCl2.

Regarding `NCCCCCCCCCCCCNC(=O)Cc1ccc(O)cc1O` [NPS 021], the “increase in [Ca2+]i evoked by extracellular Ca2+” value in experiment [1] (around 500 μM) is given as “abolished”. Also, the “change in [Ca2+]i by itself” value in experiment [1] (low [Ca2+] 0.5 mM) was “does not by itself cause any change in [Ca^2+]i”.
In the case of Philanthotoxin-433, in experiment [1] (tested at 500 μM), the “effect on mobilization of intracellular Ca2+” value (“effect on mobilization” below) is “without effect”.
As to `COc1ccc(CCN(C)CCCC(C#N)(c2cc(OC)c(OC)c(OC)c2)C(C)C)cc1OC` [Compound D-600], in experiment [1], the “influx of extracellular Ca2+” value is given as “blocked the influx of extracellular Ca^2+” and the “potentiation of Ca2+ mobilization / transient increases in [Ca2+]i” value was “potentiated the mobilization of intracellular Ca^2+”.
Usually EC50 stands for the concentration at which the effect is half-maximal. For the compound `CSc1cccc(C(C)NCCCc2ccccc2)c1` (stereo not drawn) [Compound 8J, N-(3-Phenylpropyl)-1-(3-thiomethylphenyl)ethylamine hydrochloride], the EC50 in experiment [1] (setting [4]) is < 5000 nM; in experiment [1] (setting [5]) it was 780 nM.
For `N=C(N)NCCC[C@H](N)C(=O)NCCCNCCCNCCCCCNC(=O)[C@H](CC(N)=O)NC(=O)Cc1ccc(O)cc1O` [Argiotoxin-636, argiotoxin 636], in experiment [1] (400 μM), the “effect on cytosolic Ca2+ responses to subsequent extracellular Ca2+” value was “did potentiate cytosolic Ca^2+ responses” and the “increases in [Ca2+]i” value was “did not elicit increases in [Ca^2+]”. In addition, in experiment [1] (tested at 100 to 300 μM), the “effect on [Ca2+]i” value was “no effect”.
As for `COc1cccc(C(C)NCCC(c2ccccc2)c2ccccc2)c1` (stereo not drawn) [meta-Methoxyfendiline], the “potency in mobilization of intracellular Ca2+” value in experiment [1] (racemic mixture) is listed as “as potent as NPS 467”.
Consider `C1CNCCNCCNCCNCCNCCN1` [Hexacyclen, 1,4,7,10,13,16-hexaaza-cyclooctadecane], for which, in experiment [1], the “potency relative to NPS 383” value was found to be 7 fold and the “potency relative to pentaethylenehexamine” value turned out to be 25 fold.
For `COc1ccc([C@@H](C)N[C@H](C)c2cccc3ccccc23)cc1C` [Compound 17P, (R,R)—N-(1-(4-Methoxy-3-methylphenyl)ethyl)-1-(1-naphthyl)ethylamine hydrochloride], the half-maximal effective concentration (EC50) in experiment [1] (setting [4]) is < 5000 nM; in experiment [1] (setting [5]) it was 40 nM.
As for `CC1=C(C(=O)OC(C)C)[C@@H](c2cccc3nonc23)C([N+](=O)[O-])=C(C)N1` [(−) 202-791], in experiment [1], the “compounds with any effect on basal [Ca2+]i or increases evoked by extracellular Ca2+” value was “None”.
As to `NCCCCCN` [Cadaverine, cadaverine], the “effect on mobilization” value in experiment [1] (tested at 2 mM) is “inactive”.
Consider polyLys (3.8) (peptide), for which the EC50 for the mobilization of intracellular Ca^2+ (fura-2, bovine parathyroid cells) in experiment [2] is 3000 nM.
On to protamine (peptide), for which, in experiment [2], the cyclic AMP (% of control), isoproterenol-stimulated, 2 ug/ml protamine, +PTx was 89 % of control; the cyclic AMP (% of control), isoproterenol-stimulated, 2 ug/ml protamine, control was 20 % of control; the potency in mobilizing intracellular Ca^2+ in parathyroid cells (EC50) stood at 40 nM.
Regarding `COc1ccc([C@@H]2Sc3ccccc3N(CCN(C)C)C(=O)[C@@H]2OC(C)=O)cc1` [diltiazem], the “activity like verapamil and D-600” value in experiment [1] (100 μM) is on record as “effective”.
As for `COc1ccc([C@@H](C)N[C@H](C)c2cccc3ccccc23)cc1` [Compound 14U, (R,R)—N-(1-(4-Methoxyphenyl)ethyl)-1-(1-naphthyl)ethylamine hydrochloride], the EC50 in experiment [1] (setting [4]) was < 5000 nM; in experiment [1] (setting [5]), 130 nM.
For `CCC[C@@H]1C[C@@H](C(=O)N[C@@H]([C@H]2O[C@H](SC)[C@H](O)[C@@H](O)[C@H]2O)[C@@H](C)O)N(C)C1` [Lincomycin, lincomycin], in experiment [1] (tested at 500 μM), the “effect on mobilization” value is reported as “without effect”.
Turning to `NCCCCCCCCCCCCN` [NPS 472, 1,12-diaminododecane], in experiment [1] (setting [6]), the “effect on [Ca2+]i” value is “prompt fall in [Ca^2+]i”.
As to `N=C(N)NCCC[C@H](N)C(=O)NCCCNCCCNCCCCCNC(=O)[C@H](CC(N)=O)NC(=O)Cc1c[nH]c2cccc(O)c12` [Argiotoxin-659, argiotoxin 659], the “effect on [Ca2+]i” value in experiment [1] (tested at 100 to 300 μM) is “evoked transient increases in [Ca^2+]i”.
As to `NCCCCN` [Putrescine], the “effect on mobilization” value in experiment [1] (tested at 2 mM) was “inactive”.
As for `COc1ccc(CCCN[C@H](C)c2cccc(OC)c2)cc1` [Compound 20I], the EC50 in experiment [1] (setting [5]) is < 1000 nM.
As to polyLys (14) (peptide), the EC50 for the mobilization of intracellular Ca^2+ (fura-2, bovine parathyroid cells) in experiment [2] stood at 1000 nM.
In the case of polyArgTyr (22) (peptide), in experiment [2], the EC50 for mobilizing intracellular Ca^2+ was < 100 nM and the EC50 for the mobilization of intracellular Ca^2+ (fura-2, bovine parathyroid cells) amounted to 200 nM.
Regarding `COc1cccc(C(C)NCCCc2ccccc2)c1` (racemic) [NPS 467], in experiment [3], the “time course of hypocalcemic effect” value is on record as “maximal within three hours”. The “serum or whole blood Ca2+” value in experiment [3] (three hours, low calcium diet) was “dose-dependent reduction in serum or whole blood Ca^2+”. The “circulating levels of PTH” value in experiment [3] (preliminary studies) was “dose-dependent reduction in circulating levels of PTH”.
With `COc1ccc(CC(=O)NCCCCCCCCCCCCN)cc1OC` [NPS 384], the “increase in [Ca2+]i” value in experiment [1] (300 μM) is “did not evoke an increase in [Ca^2+]i”. In experiment [1] (setting [6]), the “effect on [Ca2+]i” value is “prompt fall in [Ca^2+]i”. Also, in experiment [1], the “influx of extracellular Ca2+” value is on record as “blocked influx of extracellular Ca^2+” and the “potentiation of Ca2+ mobilization / transient increases in [Ca2+]i” value is listed as “fails to do so”.
As to `CC1=C(C(=O)OC(C)C)[C@H](c2cccc3nonc23)C([N+](=O)[O-])=C(C)N1` [(+) 202-791], the “compounds with any effect on basal [Ca2+]i or increases evoked by extracellular Ca2+” value in experiment [1] is reported as “None”.
Consider polyLys (27) (peptide), for which, in experiment [2], the EC50 for the mobilization of intracellular Ca^2+ (fura-2, bovine parathyroid cells) came out at 30 nM.
Turning to `COc1ccc(CN[C@H](C)c2cccc3ccccc23)cc1Cl` [Compound 17M, (R)—N-(3-Chloro-4-methoxybenzyl)-1-(1-naphthyl)ethylamine hydrochloride], the figures for the EC50 in experiment [1] (setting [4]) and in experiment [1] (setting [5]) were < 5000 nM and 150 nM, respectively.
Turning to `CC(C)c1ccc(CN[C@H](C)c2cccc3ccccc23)cc1` [Compound 11X, (R)—N-(4-Isopropylbenzyl)-1-(1-naphthyl)ethylamine hydrochloride], in experiment [1] (setting [4]), the EC50 is < 5000 nM.
As for `COC(=O)C1=C(C)NC(C)=C([N+](=O)[O-])C1c1ccccc1C(F)(F)F` (stereo not drawn) [BAY K 8644], the “compounds with any effect on basal [Ca2+]i or increases evoked by extracellular Ca2+” value in experiment [1] is reported as “None”.
On to polyArg (100) (peptide), for which the EC50 for the mobilization of intracellular Ca^2+ (fura-2, bovine parathyroid cells) in experiment [2] stood at 4 nM.
Take `CCN(CC)CCCCCCCCOC(=O)c1cc(OC)c(OC)c(OC)c1` [TMB-8]: in experiment [1], the “influx of extracellular Ca2+” value is “blocked the influx of extracellular Ca^2+” and the “potentiation of Ca2+ mobilization / transient increases in [Ca2+]i” value was “potentiated the mobilization of intracellular Ca^2+”. Besides, the “potentiation of Ca2+ mobilization / transient increases in [Ca2+]i” value in experiment [1] (listed as TNB-8) is “potentiated transient increases in [Ca^2+]i”.
For `C[C@@H](NCCCc1ccccc1Cl)c1cccc2ccccc12` [Compound 12Z, (R)—N-3-(2-Chlorophenyl)-1-propyl-1-(1-naphthyl)ethylamine hydrochloride], the EC50 in experiment [1] (setting [4]) is < 5000 nM.
Consider `N[C@@H](CCC(=O)O)C(=O)O` [glutamate], for which the “response to mGluR agonists” value in experiment [1] (bovine parathyroid cells or Xenopus oocytes expressing calcium receptors) is on record as “did not respond”.
